Measured values as given in patent publication US20230389548A1, “MIXTURES OF PYRIMIDINES AS HERBICIDAL COMPOSITIONS” (SYNGENTA CROP PROTECTION AG, priority 2020, published 2023).

Key:
Experiment in all cases: Post-emergence glasshouse spray test, visual percentage phytotoxicity after 13 days
Format in all cases: in vivo
[1] = tested on: Abutilon threophrasti (ABUTH); conditions: for ABUTH percentage phytotoxicity: B1
How it was run: (§1)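 Plants grown 8 days in sterilised soil (24/19 °C, 16 h light) were sprayed at 500 l/Ha with compound formulated in acetone/IF50 emulsifier-solvent as a 50 g/l solution, diluted in 0.2% Genapol XO80 to final dose. Phytotoxicity was scored visually versus untreated controls after 13 days (24/18 °C, 15 h light, 50% humidity).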

[2] = tested on: Alopecurus myosuroides (ALOMY); conditions: for ALOMY percentage phytotoxicity: B1
How it was run: as §1

[3] = tested on: Amaranthus retroflexus (AMARE); conditions: for AMARE percentage phytotoxicity: B1
How it was run: as §1

[4] = tested on: Chenopodium album (CHEAL); conditions: for CHEAL percentage phytotoxicity: B1
How it was run: as §1

[5] = tested on: Digitaria sanguinalis (DIGSA); conditions: for DIGSA percentage phytotoxicity: B1
How it was run: as §1

[6] = tested on: Echinochloa crus-galli (ECHCG)
How it was run: as §1

[7] = tested on: Ipomoea hederacea (IPOHE); conditions: for IPOHE percentage phytotoxicity: B1
How it was run: as §1

[8] = tested on: Lolium perenne (LOLPE); conditions: for LOLPE percentage phytotoxicity: B1
How it was run: as §1

[9] = tested on: Setaria faberi (SETFA); conditions: for SETFA percentage phytotoxicity: B1
How it was run: as §1

[10] = tested on: Stellaria media (STEME); conditions: for STEME percentage phytotoxicity: B1
How it was run: as §1

## FC(F)c1cc(-c2c(Cl)cccc2Oc2ncc(Cl)cn2)on1 [A-I]
[1]; 0.625 g/ha post-emergence
  ABUTH percentage phytotoxicity: 15%
[1]; 1.25 g/ha post-emergence
  ABUTH percentage phytotoxicity: 41%
[1]; 2.5 g/ha post-emergence
  ABUTH percentage phytotoxicity: 49%
[1]; 5 g/ha post-emergence
  ABUTH percentage phytotoxicity: 68%
[1]; 10 g/ha post-emergence
  ABUTH percentage phytotoxicity: 68%
[1]; B2.1.7, 1.25 g/ha post-emergence
  Observed phytotoxicity ABUTH: 8%
[1]; B2.1.7, 2.5 g/ha post-emergence
  Observed phytotoxicity ABUTH: 25%
[1]; B2.4.6, 0.625 g/ha post-emergence
  Observed phytotoxicity ABUTH: 15%
[2]; 0.625 g/ha post-emergence
  ALOMY percentage phytotoxicity: 5%
[2]; 1.25 g/ha post-emergence
  ALOMY percentage phytotoxicity: 11%
[2]; 2.5 g/ha post-emergence
  ALOMY percentage phytotoxicity: 10%
[2]; 5 g/ha post-emergence
  ALOMY percentage phytotoxicity: 43%
[2]; 10 g/ha post-emergence
  ALOMY percentage phytotoxicity: 41%
[2]; B2.2.5, 5 g/ha post-emergence
  Observed phytotoxicity ALOMY: 14%
[2]; B2.3.5, 1.25 g/ha post-emergence
  Observed phytotoxicity ALOMY: 1%
[2]; B2.4.4, 10 g/ha post-emergence
  Observed phytotoxicity ALOMY: 41%
[3]; 0.625 g/ha post-emergence
  AMARE percentage phytotoxicity: 60%
[3]; 1.25 g/ha post-emergence
  AMARE percentage phytotoxicity: 70%
[3]; 2.5 g/ha post-emergence
  AMARE percentage phytotoxicity: 98%
[3]; 5 g/ha post-emergence
  AMARE percentage phytotoxicity: 98%
[3]; 10 g/ha post-emergence
  AMARE percentage phytotoxicity: 100%
[3]; B2.1.5, 1.25 g/ha post-emergence
  Observed phytotoxicity AMARE: 55%
[3]; B2.2.6, 0.625 g/ha post-emergence
  Observed phytotoxicity AMARE: 51%
[3]; B2.2.6, 1.25 g/ha post-emergence
  Observed phytotoxicity AMARE: 76%
[3]; B2.4.8, 1.25 g/ha post-emergence
  Observed phytotoxicity AMARE: 70%
[4]; 0.625 g/ha post-emergence
  CHEAL percentage phytotoxicity: 48%
[4]; 1.25 g/ha post-emergence
  CHEAL percentage phytotoxicity: 53%
[4]; 2.5 g/ha post-emergence
  CHEAL percentage phytotoxicity: 79%
[4]; 5 g/ha post-emergence
  CHEAL percentage phytotoxicity: 76%
[4]; 10 g/ha post-emergence
  CHEAL percentage phytotoxicity: 78%
[4]; B2.1.6, 1.25 g/ha post-emergence
  Observed phytotoxicity CHEAL: 45%
[4]; B2.4.7, 1.25 g/ha post-emergence
  Observed phytotoxicity CHEAL: 53%
[5]; 0.625 g/ha post-emergence
  DIGSA percentage phytotoxicity: 6%
[5]; 1.25 g/ha post-emergence
  DIGSA percentage phytotoxicity: 25%
[5]; 2.5 g/ha post-emergence
  DIGSA percentage phytotoxicity: 34%
[5]; 5 g/ha post-emergence
  DIGSA percentage phytotoxicity: 63%
[5]; 10 g/ha post-emergence
  DIGSA percentage phytotoxicity: 78%
[5]; B2.2.3, 5 g/ha post-emergence
  Observed phytotoxicity DIGSA: 48%
[5]; B2.3.3, 0.625 g/ha post-emergence
  Observed phytotoxicity DIGSA: 3%
[5]; B2.3.3, 1.25 g/ha post-emergence
  Observed phytotoxicity DIGSA: 9%
[5]; B2.4.2, 2.5 g/ha post-emergence
  Observed phytotoxicity DIGSA: 34%
[5]; B2.4.2, 5 g/ha post-emergence
  Observed phytotoxicity DIGSA: 63%
[5]; B2.4.2, 10 g/ha post-emergence
  Observed phytotoxicity DIGSA: 78%
[5]; B2.5.1, 2.5 g/ha post-emergence
  Observed phytotoxicity DIGSA: 34%
[5]; B2.6.2, 0.625 g/ha post-emergence
  Observed phytotoxicity DIGSA: 6%
[5]; B2.6.2, 2.5 g/ha post-emergence
  Observed phytotoxicity DIGSA: 34%
[5]; B2.6.2, 10 g/ha post-emergence
  Observed phytotoxicity DIGSA: 78%
[6]; B2.1.2, 0.625 g/ha post-emergence
  Observed phytotoxicity ECHCG: 8%
[6]; B2.1.2, 5 g/ha post-emergence
  Observed phytotoxicity ECHCG: 20%
[6]; B2.2.2, 0.625 g/ha post-emergence
  Observed phytotoxicity ECHCG: 0%
[6]; B2.2.2, 1.25 g/ha post-emergence
  Observed phytotoxicity ECHCG: 34%
[6]; B2.2.2, 5 g/ha post-emergence
  Observed phytotoxicity ECHCG: 10%
[6]; B2.3.2, 0.625 g/ha post-emergence
  Observed phytotoxicity ECHCG: 0%
[6]; B2.3.2, 1.25 g/ha post-emergence
  Observed phytotoxicity ECHCG: 4%
[6]; B2.3.2, 5 g/ha post-emergence
  Observed phytotoxicity ECHCG: 10%
[7]; 0.625 g/ha post-emergence
  IPOHE percentage phytotoxicity: 32%
[7]; 1.25 g/ha post-emergence
  IPOHE percentage phytotoxicity: 50%
[7]; 2.5 g/ha post-emergence
  IPOHE percentage phytotoxicity: 80%
[7]; 5 g/ha post-emergence
  IPOHE percentage phytotoxicity: 79%
[7]; 10 g/ha post-emergence
  IPOHE percentage phytotoxicity: 60%
[7]; B2.3.6, 0.625 g/ha post-emergence
  Observed phytotoxicity IPOHE: 24%
[7]; B2.4.5, 10 g/ha post-emergence
  Observed phytotoxicity IPOHE: 60%
[7]; B2.6.4, 10 g/ha post-emergence
  Observed phytotoxicity IPOHE: 60%
[8]; 0.625 g/ha post-emergence
  LOLPE percentage phytotoxicity: 4%
[8]; 1.25 g/ha post-emergence
  LOLPE percentage phytotoxicity: 5%
[8]; 2.5 g/ha post-emergence
  LOLPE percentage phytotoxicity: 8%
[8]; 5 g/ha post-emergence
  LOLPE percentage phytotoxicity: 43%
[8]; 10 g/ha post-emergence
  LOLPE percentage phytotoxicity: 30%
[8]; B2.1.1, 0.625 g/ha post-emergence
  Observed phytotoxicity LOLPE: 0%
[8]; B2.1.1, 1.25 g/ha post-emergence
  Observed phytotoxicity LOLPE: 0%
[8]; B2.2.4, 1.25 g/ha post-emergence
  Observed phytotoxicity LOLPE: 0%
[8]; B2.2.4, 2.5 g/ha post-emergence
  Observed phytotoxicity LOLPE: 0%
[8]; B2.2.4, 5 g/ha post-emergence
  Observed phytotoxicity LOLPE: 14%
[8]; B2.3.4, 1.25 g/ha post-emergence
  Observed phytotoxicity LOLPE: 0%
[8]; B2.3.4, 2.5 g/ha post-emergence
  Observed phytotoxicity LOLPE: 0%
[8]; B2.4.3, 10 g/ha post-emergence
  Observed phytotoxicity LOLPE: 30%
[8]; B2.5.2, 5 g/ha post-emergence
  Observed phytotoxicity LOLPE: 21%
[8]; B2.5.2, 10 g/ha post-emergence
  Observed phytotoxicity LOLPE: 30%
[8]; B2.6.3, 10 g/ha post-emergence
  Observed phytotoxicity LOLPE: 30%
[9]; 0.625 g/ha post-emergence
  SETFA percentage phytotoxicity: 7%
[9]; 1.25 g/ha post-emergence
  SETFA percentage phytotoxicity: 13%
[9]; 2.5 g/ha post-emergence
  SETFA percentage phytotoxicity: 29%
[9]; 5 g/ha post-emergence
  SETFA percentage phytotoxicity: 53%
[9]; 10 g/ha post-emergence
  SETFA percentage phytotoxicity: 65%
[9]; B2.1.3, 5 g/ha post-emergence
  Observed phytotoxicity SETFA: 40%
[9]; B2.2.1, 1.25 g/ha post-emergence
  Observed phytotoxicity SETFA: 8%
[9]; B2.2.1, 2.5 g/ha post-emergence
  Observed phytotoxicity SETFA: 14%
[9]; B2.2.1, 5 g/ha post-emergence
  Observed phytotoxicity SETFA: 51%
[9]; B2.3.1, 0.625 g/ha post-emergence
  Observed phytotoxicity SETFA: 3%
[9]; B2.3.1, 1.25 g/ha post-emergence
  Observed phytotoxicity SETFA: 8%
[9]; B2.3.1, 2.5 g/ha post-emergence
  Observed phytotoxicity SETFA: 14%
[9]; B2.4.1, 2.5 g/ha post-emergence
  Observed phytotoxicity SETFA: 29%
[9]; B2.6.1, 0.625 g/ha post-emergence
  Observed phytotoxicity SETFA: 7%
[9]; B2.6.1, 2.5 g/ha post-emergence
  Observed phytotoxicity SETFA: 29%
[10]; 0.625 g/ha post-emergence
  STEME percentage phytotoxicity: 44%
[10]; 1.25 g/ha post-emergence
  STEME percentage phytotoxicity: 60%
[10]; 2.5 g/ha post-emergence
  STEME percentage phytotoxicity: 88%
[10]; 5 g/ha post-emergence
  STEME percentage phytotoxicity: 99%
[10]; 10 g/ha post-emergence
  STEME percentage phytotoxicity: 98%
[10]; B2.1.4, 1.25 g/ha post-emergence
  Observed phytotoxicity STEME: 40%
[10]; B2.3.7, 0.625 g/ha post-emergence
  Observed phytotoxicity STEME: 29%
[10]; B2.6.5, 0.625 g/ha post-emergence
  Observed phytotoxicity STEME: 44%
